The source of these data is patent US9604932B2 (priority 2013, dated 2017).

A short description of data set [1]: Conversion of prodrug upon exposure to plasma, biological solutions and tissues. The data set is classed as in vitro ADME. To be noted: stable oil until exposure to plasma.
The test system of data set [2] is contrast-induced nephropathy (CIN). Description: Rat model of contrast-induced nephropathy. The data set is classed as in vivo, Sprague-Dawley rats. To be noted: protocol only; 10, 20, 40 mg/kg/day BID IV. The method, then:
In order to test the efficacy of R-107 in contrast-induced nephropathy (CIN), a single-blinded study of CIN is carried out in Sprague-Dawley rats (n=10 per group) subjected to dehydration, prostaglandin synthetase inhibition, and an IV challenge of contrast media (CM). A sham injury group is compared to treatment of CM-challenged healthy rats with R-107 (10, 20, 40 mg/kg/day in 5% dextrose, BID IV), N-acetylcysteine (NAC, 100 mg/kg/day in 5% dextrose, BID), or vehicle control (hydroxypropyl cyclodextrin, HPCD) initiated 10 min before CM administration and continued for 48 hours. Rats are evaluated at 48 hours for renal function (blood urea nitrogen to creatinine ratio, BUN:creatinine) and parameters reflecting renal injury, including protein release into the blood (NGAL; kidney injury molecule-1, KIM-1), pro-inflammatory transcription factor expression (cytoplasmic IkBa degradation, nuclear p65 translocation), histologic damage (H&E), mitochondrial swelling (electron microscopy), and nuclear damage and DNA repair (PARP activation and nitrosative stress as noted by poly(ADP-ribose) and 3-nitrotyrosine (3-NT) tissue immunoreactivity). […]

In data set [3] the test system is pulmonary hypertension of the newborn (PPHN). Description: Lamb model of pulmonary hypertension of the newborn. Format: in vivo, newborn lambs. To be noted: protocol only; 0.3, 1.0, 3.0 mg/kg/h IV. On the procedure: In this study, a prospective, placebo-controlled, dose-escalation, randomized study is carried out in anesthetized, mechanically-ventilated, and muscle-relaxed newborn lambs wherein pulmonary hypertension of the newborn (PPHN) has been induced by in utero ligation of the ductus arteriosus. This clinically-relevant gold-standard model is characterized by severe PAH that is poorly responsive to inhaled nitric oxide (iNO), thus reflecting the 30-50% of clinical PPHN non-responders to clinical iNO therapy. R-107 (0, 0.3, 1.0, and 3.0 mg/kg/h IV; n=6 per group) is compared to iNO (40 ppm; n=6) over a 6 hour period of observation. Hemodynamic parameters are monitored for response to treatment and post-treatment rebound pulmonary arterial hypertension. The activity of R-107 is related to its plasma concentration, in order to construct a pharmacodynamic profile.

Data set [4] deals with Pseudomonas aeruginosa (PSA)-induced septic pneumonia. In words: Sheep model of septic pneumonia. Format: in vivo, Merino sheep. The conditions noted are these: protocol only; total 80 mg/kg BID IV. From the text:
In this study, a model of sheep suffering from Pseudomonas aeruginosa (PSA)-induced septic pneumonia and consequent pulmonary dysfunction is used. Female Merino sheep are operatively instrumented for chronic study with Swan-Ganz®, i.e., pulmonary artery, and femoral artery catheters, and are randomly allocated to vehicle control or R-107 treatment group. Smoke inhalation injury (48 breaths of cotton smoke) is induced and 2.4×10^11 colony-forming units (CFU) of PSA are instilled in the lung via bronchoscope under general anesthesia. The animal in the treatment group are intravenously (IV) administered with a total of 80 mg/kg of R-107 BID. Ringer's lactate solution is titrated IV to maintain hematocrit (hct) at baseline±3%. Measurements are taken at baseline and every 3 hours during the 24 hours study period. Data are expressed as mean±SEM. Statistical analysis: two-way ANOVA and Bonferroni post hoc comparison. A p-value <0.05 is considered as statistically significant.

Data set [5] has as its system erectile dysfunction (ED). In words: Rat model of erectile dysfunction. Format: in vivo, Sprague-Dawley rats. The conditions noted are these: protocol only; 80 mg/kg/day BID IV.
The subject of data set [6] is mice exposed to a lethal dose of E. coli lipopolysaccharide (LPS). Description: Murine model of sepsis (lethal dose of E. coli LPS). Format: in vivo, Balb/c mice. To be noted: protocol only; 0, 20, 40, or 80 mg/kg/day BID IP. The method, then: In this study, Balb/c mice exposed to a lethal dose of E. coli lipopolysaccharide (LPS; 10 mg/kg IP) are treated with R-107 (0, 20, 40, or 80 mg/kg/day, BID IP), with the initial dose given 1 hour after LPS injection, and the mortality for the animal treated with LPS only (the control group) vs. that for the animals treated with the various doses of R-107 is compared.
In a satellite study, tissues and sera are collected at 16 hours, i.e., 15 hours after the first administration and 3 hours after the second administration of R-107, for analysis, and the level of creatinine, aspartate transminase (AST), alanine transaminase (ALT), bilirubin, amylase, lipase, and alkaline phosphatase (ALP), associated with kidney, pancreas, and liver functioning are measured.

Data set [7] is described as follows: Incubation of R-107 in mouse plasma, relative concentrations by HPLC. To be noted: R-107 4 mM in mouse plasma, 37° C. Format: in vitro ADME. The method, then:
In an in vitro study, 2,2,5,5-tetramethyl-3-(nitrooxymethyl)pyrrolidin-1-yl acetate (R-107) was incubated in mouse or rat plasma at 37° C. at a concentration of 4 mM, and the relative concentrations of this compound as well as of its corresponding hydroxylamine, (1-hydroxy-2,2,5,5-tetramethylpyrrolidin-3-yl) methyl nitrate (R-105), and 3-nitratomethyl-2,2,5,5-tetramethylpyrrolidinyloxy (R-100), were measured by HPLC.

Data set [8] is described as follows: Density of R-107. The data set is classed as physicochemical. Also noted: unit not given here. The conditions noted are these: oil.
The subject of data set [9] is renal ischemia-reperfusion injury. In words: Rat model of renal ischemia-reperfusion injury. Format: in vivo, Sprague-Dawley rats. To be noted: protocol only; 80 mg/kg IV infusion.

As to `CC(=O)ON1C(C)(C)CC(CO[N+](=O)[O-])C1(C)C` (centres unmarked) [R-107, 2,2,5,5-tetramethyl-3-(nitrooxymethyl)pyrrolidin-1-yl acetate], the “Stability / conversion upon exposure to plasma” value in data set [1] is “readily converted to its corresponding 1-pyrrolidinyloxy derivative R-100”. The “Efficacy in rat model of contrast-induced nephropathy” value in data set [2] is recorded as “Effective”. Besides, the “Efficacy in lamb model of pulmonary hypertension of the newborn” value in [3] was “Effective”. In data set [4], the “Efficacy in sheep model of septic pneumonia” value was “Effective”. In data set [5], the “Efficacy in rat model of erectile dysfunction” value is “Effective”. The “Efficacy in murine model of sepsis” value in data set [6] is listed as “Effective”. The “Relative concentration of R-107” value in data set [7] (0.1 hrs) came out at 326; in data set [7] (1.5 hrs), 284; in data set [7] (20 hrs) it was 0. The compound also displayed a Density in data set [8] of 1.12. For the same compound, the “Efficacy in rat model of renal ischemia-reperfusion injury” value in data set [9] was “Effective”.
